These results are taken from US20070225242A1, “Method and composition for treating and preventing tumor metastasis in vivo” (The Board of Trustees of the Leland Stanford Junior …, priority 2005, published 2007).

Experiment [1] concerns LOX. The experiment in a line: LOX fluorescent activity assay, in vivo (plasma of treated tumor-bearing mice). As to conditions: BAPN-treated and antibody-treated mice, terminal bleeds. The text has this:
(§1) LOX activity may be measured in a number of ways, using a soluble elastin or soluble collagen with labeled lysine as a substrate. Details of an activity assay are given in Royce et al., “Copper metabolism in mottled mouse mutants. The effect of copper therapy on lysyl oxidase activity in brindled (Mobr) mice,” Biochem J. 1982 Feb. 15; 202(2): 369-371. Especially preferred is a […] assay. One is described in Palamakumbura, et al. “A fluorometric assay for detection of lysyl oxidase enzyme activity in biological samples,” Anal Biochem. 2002 Jan. 15; 300(2):245-51. This method was used in the present work to assess LOX inhibition by BAPN and by anti-LOX antibody in cells in culture (using conditioned media) and in mice (using plasma), in a 96-well format.
(§2) LOX activity assay. The original method is described in Folgelgren, et al. J. Biol. Chem. 280:24690-24697 (2005). For the in vivo data, terminal bleeds were taken at the end of the experiment described above from untreated (control) mice, 2 and 3 wk BAPN mice, and antibody-treated mice. […] For the in vitro data, 50 μl of conditioned phenol-red-free medium was taken from cells incubated for 24 h under conditions of hypoxia. Samples were incubated overnight at 37° C. with different concentrations of BAPN or with purified LOX antibody at a concentration equivalent to 20 mg kg^−1 dose. Again, 0=fluorescent reading for 500 μM BAPN.

In experiment [2] the target is T1, LOX (Homo sapiens, UniProt P28300).
T1 construct: endogenous in cells; host or cells: Hypoxic cancer cells
T1 sequence (P28300 169-417): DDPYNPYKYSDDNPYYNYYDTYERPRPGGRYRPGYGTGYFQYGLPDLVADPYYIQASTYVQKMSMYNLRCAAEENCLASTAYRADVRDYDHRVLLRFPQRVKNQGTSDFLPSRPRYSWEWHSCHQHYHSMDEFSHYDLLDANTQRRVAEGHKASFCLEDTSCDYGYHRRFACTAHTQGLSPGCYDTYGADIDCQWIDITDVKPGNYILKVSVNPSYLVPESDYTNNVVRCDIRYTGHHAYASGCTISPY
The experiment in a line: LOX fluorescent activity assay, in vitro (conditioned medium from hypoxic cells). The following applies: 500 μM BAPN, set as 0 fluorescence. The experiment is classed as biochemical.
From the text: as §1, §2

Experiment [3] relates to A549 Non-Small Cell Lung Cancer Cells. The experiment in a line: A549 cells injected into the tail vein of mice. As to conditions: sacrificed at Day 22; BAPN 100 mg/kg daily. It counts as in vivo. Here is the method: Human lung cancer A549 cells (ATCC CCL 185), known to be highly metastatic, were generated to stably express shRNA targeting LOX, as described in Methods. […] 1×10^6 cells were injected into the tail vein of mice (all cells go to the lung).
Lungs from the dead mice bearing control tumors were formalin fixed, paraffin embedded and H&E stained to quantify lung tumors. Most lungs contained no tumors but all mice had numerous lymph node metastases and one had liver metastases. N=5 mice bearing lung tumors expressing LOX shRNA were sacrificed at Day 22. […] In addition, n=5 mice bearing control tumors treated daily with BAPN (100 mg/kg) were sacrificed at Day 22. […] The number of lung tumors for the A549 control animals is low because it is believed that the tumors metastasized out of the lung.
Wild-type or LOX shRNA A549 Non-Small Cell Lung Cancer Cells were injected into the tail vein of immune deficient mice and analyzed for survival differences for a period of 181 days. 100% of animals with wild-type tumors died within 35 days compared with only 40% of animals stably transfected with a shRNA to LOX. Some animals were allowed two weeks to develop metastases, and then were left untreated or treated twice weekly with 2 mg/kg of the LOX antibody in Example 7. FIG. 12 is a Kaplan-Meyer plot showing survival of the animals.

For a further experiment, the system named is lung and bone metastases. The experiment in a line: Lung and bone metastases in treated mice (FIG. 17). It counts as in vivo. The following applies: FIGS. 17A-D. Here is the method: FIGS. 17A-C are pictures of lungs from mice which were treated and untreated with LOX shRNA, a LOX antibody or BAPN, showing the effect of LOX treatment on metastases in lung.
FIGS. 17A-C are pictures of lungs from mice which were treated and untreated with LOX shRNA, the LOX antibody in Example 7 or BAPN, showing the effect of LOX treatment on metastases in lung.

The next experiment deals with MDA231 cells. Put plainly: Pulmonary metastases from orthotopic MDA231 tumors with conditioned media injections after bone marrow transplantation. It counts as in vivo, mice. The text has this: We then determined whether elevated levels of circulating LOX from hypoxic tumor cells could affect BMDC recruitment and formation of the metastatic niche. We transplanted male bone marrow cells into female mice prior to orthotopically implanting Wt or LOX shRNA MDA231 cells, and used in situ hybridization with a Y-chromosome-specific probe to investigate BMDC recruitment. We allowed two weeks for primary tumor formation, and then supplemented the mice with different levels of circulating LOX for four weeks by daily intraperitoneal CM injections (FIG. 20B).
Nude (nu/nu) 6-week old female mice were lethally irradiated (950 rads) and transplanted with 10^6 bone marrow cells isolated from the tibia and femur of nude (nu/nu) male mice 48 hr later. After 4 weeks, 10^7 MDA231 human breast cancer cells expressing either an shRNA targeting LOX or a scrambled control sequence were implanted orthotopically in the mammary fat pad.
Conditioned media (CM) consisted of serum-free Modified Eagle's Medium cultured on MDA231 LOX shRNA or control cells incubated in normoxia (N; 21% O2) or hypoxia (H; 2% O2) for 24 h. CM was passed through a 0.22-μm filter and 300-μl were injected intraperitoneally daily into mice (Kaplan (2005), supra). When stated, beta-aminoproprionitrile was added to CM for an injection dose of 100 mg/kg. […]

The subject of the next experiment is RAW macrophages. Put plainly: In vitro invasion of RAW macrophages towards conditioned media. It counts as cell-based. As to conditions: BAPN at 200 μM. How it is done:
To determine if LOX levels affected the migration or invasion of BMDCs, we performed in vitro invasion assays using CM as a chemo-attractant (FIG. 21B). The migration of BMDCs was increased by FN, regardless of LOX.
In vitro migration and invasion of RAW macrophage cells towards CM (as chemo-attractant) was measured in a transwell assay as described above. Fibronectin (cFN, Sigma) was used at 25 μg/ml and BAPN at 200 μM. Matrigel plugs were formed by mixing 60% Matrigel with 40% CM prior to subcutaneous injection of 500 μl of the mixture. Plugs were removed 7 days later, fixed in OCT, sectioned and stained for B-cells (B220). Cells in 10 fields of view were counted at least 50 μm away from the edge of the plug.

Take `N#CCCN` [BAPN, β-aminoproprionitrile]: in the experiment on LOX [1], the “LOX activity levels in the blood” value is reported as “Reduced LOX activity levels”. Further, on LOX [2], the LOX inhibition entry is recorded as “complete LOX inhibition”. Further, in experiment [3], the lung tumors result is “very few tumors” and the metastases result is given as “no metastases”. For the same molecule, in the experiment on lung and bone metastases, the “lung and bone metastases” value is “either stabilized disease or regression of lung and bone metastases”. In addition, the “pulmonary metastases of mice bearing Wt tumors” value with MDA231 cells (6 wk post-orthotopic implantation) is given as “eliminated”. Besides, the “increase in LOX shRNA tumor cell metastases in response to CM from hypoxic Wt cells” value in the experiment with MDA231 cells (BAPN added to CM, injection dose 100 mg/kg) is listed as “could be prevented”. For the same molecule, in the experiment with RAW macrophages, the “increased BMDC invasion with hypoxic Wt CM” value is on record as “could be prevented”.
